Patent US9701959B2, “High throughput screen for biologically active polypeptides” (Invenra Inc., priority 2012, dated 2017)
Ends that are not written are not given here.

What was measured:
[1] = system: NF-κB-Jurkat cells (GFP reporter construct for NF-kappa-B); assay: Single bead bioactivity testing in 1536-well microtiter plate (GFP fluorescence); assay type: cell-based; conditions: 1 and 2 beads per well, 4,800 cells per well, 18 hours at 37 C
Experimental: Equipment: • Cell culture incubator (Fisher Scientific) • Microplate reader (Tecan Safire) • Black, clear bottom, 1536-well microtiter plate (Corning)
1) Dilute NF-κB-Jurkat cells to 4×10^6 cells/ml using the supplemented RPMI 1640 growth media.
2) Prepare the 1536 well for the following layout:
3) Add 7. μl of supplemented RMPI 1640 media to all wells labeled “M” in the plate layout above.
4) Create the following cell master mix:
5) Add 3 μl of the cell master mix to the wells labeled “A” and “B” so that when the test and control beads are added the final number of cells is 4,800 per well.
6) Dilute the TNF-bead and Control-beads in supplemented RPMI 1640 to 1-2 beads per 2 μl.
7) Add 2 μl of TNF-beads to the wells of the plate labeled “A” and add 2 μl of the control-beads to the wells of the plate labeled “B”.
8) Incubate the plate for 18 hours at 37 C and 5% CO2.
9) Measure the GFP fluorescence of each well using the Tecan Safire plate reader.
The experiment was performed to determine if a single bead could be used to screen for activity of a protein that induces a cell-reporter in a microtiter plate. 1536 well plates were used to decrease the volume in which the assay was performed. Control beads consisting of a scFv antibody fragment were generated using the same protocol as the tested TNF-beads. The control beads were used to establish a baseline signal for the assay. […]

E. coli MG1655 = assay: Minimal Inhibitory Concentration (MIC) in E. coli, Alamar Blue, hit validation; assay type: cell-based; conditions: MIC at 18 hrs in E. coli; overnight at 35° C., triplicate
Experimental: Equipment: • Absorption and fluorescence plate reader—Tecan Safire • CO2 Incubator
Reagents: • Six chemically synthesized peptides—Biosynthesis Inc. • E. coli MG1655 (ATCC) • LB media (Sigma-Aldrich) • Alamar Blue assay kit (Life Tech)
3) Start an overnight culture of E. coli MG1655 in 5 mL of LB and grow at 37° C. with shaking at 200 rpm. 4) In the morning dilute overnight culture to OD600=0.00075 in 10 mL LB+1 mL Alamar Blue Stain. 5) Make seven (7), 1:2 serial dilutions of each peptide starting at […] in a final volume of 70 μL of PBS. 6) Add 20 μL of serial dilution of peptides in triplicate to a white small volume 96-well plate. Add 20 μl of PBS alone to the 8th well. 7) Add 120 μL of E. coli/Alamar blue dilution to each of the test wells. 8) Incubate overnight (18 hrs) at 35° C.

Molecule: TNF-beads: His-tag, spacer, TEV cleavage site, spacer, and the soluble form of TNF-alpha, SEQ ID NO: 14, on beads
- GFP signal relative to baseline (control beads) [1]: increased signal over the baseline

Molecule: GIGAVLKVLGTGLPALISWIKFKRFP [Cont 3, reference compound]
- Ave MIC (E. coli MG1655): >30 µM

Molecule: CC[C@H](C)[C@H](NC(=O)CN)C(=O)NCC(=O)N[C@@H](C)C(=O)N[C@H](C(=O)N[C@@H](CC(C)C)C(=O)N[C@@H](CCCCN)C(=O)N[C@H](C(=O)N[C@@H](CC(C)C)C(=O)N[C@H](C(=O)N[C@H](C(=O)NCC(=O)N[C@@H](CC(C)C)C(=O)N1CCC[C@H]1C(=O)N[C@H](C(=O)N[C@@H](CC(C)C)C(=O)N[C@H](C(=O)N[C@@H](CO)C(=O)N[C@@H](Cc1c[nH]c2ccccc12)C(=O)N[C@H](C(=O)N[C@@H](CCCCN)C(=O)N[C@@H](CO)C(=O)N[C@@H](CCCCN)C(=O)N[C@@H](CCCNC(=N)N)C(=O)N[C@@H](CCC(N)=O)C(=O)N[C@@H](CCCCN)C(=O)O)[C@@H](C)CC)[C@@H](C)CC)[C@@H](C)O)[C@@H](C)O)[C@@H](C)O)C(C)C)C(C)C [Hit 1]
- Ave MIC (E. coli MG1655): 12 µM

Molecule: GIGALIKVLTTGLPMLISWIKRKRNK [Hit 2]
- Ave MIC (E. coli MG1655): 14 µM

Molecule: GIGAIAKVLSTGLPRLISWIKGKRIR [Cont 2, reference compound]
- Ave MIC (E. coli MG1655): 15 µM

Molecule: GIGATVKVLSTGLRFLISWIKRKRKY [Cont 1, reference compound]
- Ave MIC (E. coli MG1655): >30 µM

Molecule: GIGAWTKVLTTGLPGLISWIKRKRLR [Hit 3]
- Ave MIC (E. coli MG1655): 20 µM
